From ChEMBL document CHEMBL1667784, “Synthesis and structure-activity relationship of 2-thiopyrimidine-4-one analogs as antimicrobial and anticancer agents” (Eur J Med Chem, 2011)
Values after ≈ are worked out from the molar mass of the structure shown.

Key:
Moraxella catarrhalis [1] = assay: Antimicrobial activity against Branhamella catarrhalis assessed as growth inhibition at 128 ug/ml by agar dilution method; format: functional
Streptococcus pyogenes [2] = assay: Antimicrobial activity against Streptococcus pyogenes assessed as growth inhibition at 128 ug/ml by agar dilution method; format: functional
Neisseria mucosa [3] = assay: Antimicrobial activity against Neisseria mucosa assessed as growth inhibition at 128 ug/ml by agar dilution method; format: functional
KB = assay: Cytotoxicity against human KB cells after 3 days by MTT assay; format: functional, cell-based; settings: 72 h
[4] = Cytotoxicity against human HuCCa1 cells after 3 days by MTT assay; format: functional, cell-based; settings: HuCC-A1, 72 h
MDA-MB-231 = assay: Cytotoxicity against human MDA-MB-231 cells after 3 days by MTT assay; format: functional, cell-based; settings: MDA-MB-231, 72 h
T47D = assay: Cytotoxicity against human T47D cells after 3 days by MTT assay; format: functional, cell-based; settings: 72 h
A549 = assay: Cytotoxicity against human A549 cells after 3 days by MTT assay; format: functional, cell-based; settings: A549, 72 h
Plasmodium falciparum = assay: Antimalarial activity against chloquine-resistant Plasmodium falciparum T9.94 infected in human erythrocyte assessed as decrease in parasite growth after 48 hrs by microscopy; format: functional, organism-based; settings: T9.94, 48 h
H69AR = assay: Cytotoxicity against human H69AR cells after 3 days by MTT assay; format: functional, cell-based; settings: 72 h
HeLa = assay: Cytotoxicity against human HeLa cells after 3 days by MTT assay; format: functional, cell-based; settings: 72 h
HepG2 = assay: Cytotoxicity against human HepG2 cells after 3 days by MTT assay; format: functional, cell-based; settings: HepG2, 72 h
[5] = Cytotoxicity against human HCC-S102 cells after 3 days by MTT assay; format: functional, cell-based; settings: HCC-S102, 72 h
HL-60 = assay: Cytotoxicity against human HL60 cells after 3 days by MTT assay; format: functional, cell-based; settings: HL-60, 72 h
P388 = assay: Cytotoxicity against mouse P388 cells after 3 days by MTT assay; format: functional, cell-based; settings: P388, 72 h
Moraxella catarrhalis [6] = assay: Antimicrobial activity against Branhamella catarrhalis assessed as growth inhibition at 10 ug/ml by agar dilution method; format: functional
Staphylococcus aureus = assay: Antimicrobial activity against Staphylococcus aureus ATCC 25923 assessed as growth inhibition at 10 ug/ml by agar dilution method; format: functional
Bacillus subtilis = assay: Antimicrobial activity against Bacillus subtilis ATCC 6633 assessed as growth inhibition at 10 ug/ml by agar dilution method; format: functional
[7] = tested on: Staphylococcus epidermidis; assay: Antimicrobial activity against Staphylococcus epidermidis ATCC 12228 assessed as growth inhibition at 10 ug/ml by agar dilution method; format: functional
Streptococcus pyogenes [8] = assay: Antimicrobial activity against Streptococcus pyogenes assessed as growth inhibition at 10 ug/ml by agar dilution method; format: functional
Neisseria mucosa [9] = assay: Antimicrobial activity against Neisseria mucosa assessed as growth inhibition at 10 ug/ml by agar dilution method; format: functional
Edwardsiella tarda = assay: Antimicrobial activity against Edwardsiella tarda assessed as growth inhibition at 10 ug/ml by agar dilution method; format: functional
Moraxella catarrhalis [10] = assay: Antimicrobial activity against Branhamella catarrhalis assessed as growth inhibition at 64 ug/ml by agar dilution method; format: functional
Candida albicans = assay: Antifungal activity against Candida albicans assessed as growth inhibition at 128 ug/ml by agar dilution method; format: functional

CCCCSc1nccc(=O)[nH]1
inhibition at 128 µg/mL (Moraxella catarrhalis [1]): 100%
inhibition at 128 µg/mL (Streptococcus pyogenes [2]): 25%
inhibition at 128 µg/mL (Neisseria mucosa [3]): 25%
IC50 (KB): 27 µg/mL (≈ 147 µM)
IC50 [4]: > 50 µg/mL
IC50 (MDA-MB-231): > 50 µg/mL
IC50 (T47D): 5 µg/mL (≈ 27.1 µM)
IC50 (A549): > 50 µg/mL
IC50 (Plasmodium falciparum): 10 µM
IC50 (H69AR): > 50 µg/mL
IC50 (HeLa): > 50 µg/mL
IC50 (HepG2): > 50 µg/mL
IC50 [5]: > 50 µg/mL
IC50 (HL-60): > 50 µg/mL
IC50 (P388): > 50 µg/mL

COc1cc([C@@H]2c3cc4c(cc3[C@@H](O[C@@H]3O[C@@H]5CO[C@@H](C)O[C@H]5[C@H](O)[C@H]3O)[C@H]3COC(=O)[C@H]23)OCO4)cc(OC)c1O [ETOPOSIDE]
IC50 (KB): 0.25 µg/mL (≈ 0.425 µM)
IC50 [4]: 4 µg/mL (≈ 6.8 µM)
IC50 (MDA-MB-231): 0.24 µg/mL (≈ 0.408 µM)
IC50 (T47D): 0.05 µg/mL (≈ 0.085 µM)
IC50 (A549): 0.6 µg/mL (≈ 1.02 µM)
IC50 (H69AR): 30 µg/mL (≈ 51 µM)
IC50 (HeLa): 0.38 µg/mL (≈ 0.646 µM)
IC50 (HepG2): 21 µg/mL (≈ 35.7 µM)
IC50 [5]: 6 µg/mL (≈ 10.2 µM)
IC50 (HL-60): 0.85 µg/mL (≈ 1.44 µM)
IC50 (P388): 0.12 µg/mL (≈ 0.204 µM)

O=c1ccnc(SCc2ccccc2)[nH]1
inhibition at 128 µg/mL (Moraxella catarrhalis [1]): 50%
inhibition at 128 µg/mL (Streptococcus pyogenes [2]): 25%
IC50 (KB): > 50 µg/mL
IC50 [4]: > 50 µg/mL
IC50 (MDA-MB-231): > 50 µg/mL
IC50 (T47D): > 50 µg/mL
IC50 (A549): > 50 µg/mL
IC50 (Plasmodium falciparum): 10 µM
IC50 (H69AR): > 50 µg/mL
IC50 (HeLa): > 50 µg/mL
IC50 (HepG2): > 50 µg/mL
IC50 [5]: > 50 µg/mL
IC50 (HL-60): > 50 µg/mL
IC50 (P388): > 50 µg/mL

CC1(C)S[C@@H]2[C@H](NC(=O)[C@H](N)c3ccccc3)C(=O)N2[C@H]1C(=O)O [AMPICILLIN]
inhibition at 10 µg/mL (Moraxella catarrhalis [6]): 100%
inhibition at 10 µg/mL (Staphylococcus aureus): 100%
inhibition at 10 µg/mL (Bacillus subtilis): 100%
inhibition at 10 µg/mL [7]: 100%
inhibition at 10 µg/mL (Streptococcus pyogenes [8]): 100%
inhibition at 10 µg/mL (Neisseria mucosa [9]): 100%
inhibition at 10 µg/mL (Edwardsiella tarda): 100%

CCC(C)Sc1nccc(=O)[nH]1 (configuration not stated)
IC50 [4]: > 50 µg/mL
IC50 (A549): > 50 µg/mL
IC50 (Plasmodium falciparum): 10 µM
IC50 (HepG2): > 50 µg/mL

O=c1ccnc(SC23CC4CC(CC(C4)C2)C3)[nH]1
inhibition at 128 µg/mL (Moraxella catarrhalis [1]): 75%
inhibition at 128 µg/mL (Streptococcus pyogenes [2]): 25%
inhibition at 128 µg/mL (Neisseria mucosa [3]): 25%
IC50 (KB): > 50 µg/mL
IC50 [4]: > 50 µg/mL
IC50 (MDA-MB-231): > 50 µg/mL
IC50 (T47D): 32 µg/mL (≈ 122 µM)
IC50 (A549): > 50 µg/mL
IC50 (Plasmodium falciparum): 10 µM
IC50 (H69AR): 35 µg/mL (≈ 133 µM)
IC50 (HeLa): > 50 µg/mL
IC50 (HepG2): 32.5 µg/mL (≈ 124 µM)
IC50 [5]: > 50 µg/mL
IC50 (HL-60): > 50 µg/mL
IC50 (P388): 36.9 µg/mL (≈ 141 µM)

O=c1ccnc(SCC2CCCCC2)[nH]1
inhibition at 64 µg/mL (Moraxella catarrhalis [10]): 100%
inhibition at 128 µg/mL (Streptococcus pyogenes [2]): 100%
inhibition at 128 µg/mL (Neisseria mucosa [3]): 25%
inhibition at 128 µg/mL (Candida albicans): 75%
IC50 (KB): > 50 µg/mL
IC50 [4]: > 50 µg/mL
IC50 (MDA-MB-231): > 50 µg/mL
IC50 (T47D): > 50 µg/mL
IC50 (A549): > 50 µg/mL
IC50 (Plasmodium falciparum): 10 µM
IC50 (H69AR): 50 µg/mL (≈ 223 µM)
IC50 (HeLa): > 50 µg/mL
IC50 (HepG2): > 50 µg/mL
IC50 [5]: > 50 µg/mL
IC50 (HL-60): > 50 µg/mL
IC50 (P388): 40.4 µg/mL (≈ 180 µM)
